Reference: US12077503B2, “Substituted cyclic amides and their use as herbicides” (FMC CORPORATION, priority 2015, dated 2024)

Columns and labels:
Type in all cases: in vivo
[1] = tested on: wheat (Triticum aestivum); test: Test A postemergence
Summary of the method: (§1)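 Compounds were formulated in a non-phytotoxic solvent mixture with surfactant and applied as a preemergence directed soil spray after seeding, or sprayed postemergence over plants 2 to 10 cm tall at the one- to two-leaf stage. Evaluation after about 10 d compared treated with untreated controls, using a scale from 0 (no effect) to 100 (complete control).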

[2] = tested on: giant foxtail (Setaria faberii); test: Test A postemergence
Summary of the method: as §1

[3] = tested on: barnyardgrass (Echinochloa crus-galli); test: Test A postemergence
Summary of the method: as §1

corn (Zea mays) [4] = test: Test A postemergence
Summary of the method: as §1

[5] = tested on: velvetleaf (Abutilon theophrasti); test: Test A postemergence
Summary of the method: as §1

[6] = tested on: morningglory (Ipomoea spp.); test: Test A postemergence
Summary of the method: as §1

[7] = tested on: pigweed (Amaranthus retroflexus); test: Test A postemergence
Summary of the method: as §1

[8] = tested on: crabgrass, large (Digitaria sanguinalis); test: Test A postemergence
Summary of the method: as §1

[9] = tested on: wheat (Triticum aestivum); test: Test A preemergence; conditions: for Plant response rating, Wheat: 125 g ai/ha, preemergence, 0 to 100 scale (0 no effect, 100 complete control); for Wheat plant response rating (0 to 100 scale): Preemergence, 500 g ai/ha, 0 is no effect, 100 is complete control
Summary of the method: as §1

[10] = tested on: giant foxtail (Setaria faberii); test: Test A preemergence; conditions: for Plant response rating, Foxtail, Giant: 125 g ai/ha, preemergence, 0 to 100 scale (0 no effect, 100 complete control); for Foxtail, Giant plant response rating (0 to 100 scale): Preemergence, 500 g ai/ha, 0 is no effect, 100 is complete control
Summary of the method: as §1

[11] = tested on: barnyardgrass (Echinochloa crus-galli); test: Test A preemergence; conditions: for Plant response rating, Barnyardgrass: 125 g ai/ha, preemergence, 0 to 100 scale (0 no effect, 100 complete control); for Barnyardgrass plant response rating (0 to 100 scale): Preemergence, 500 g ai/ha, 0 is no effect, 100 is complete control
Summary of the method: as §1

corn (Zea mays) [12] = test: Test A preemergence; conditions: for Plant response rating, Corn: 125 g ai/ha, preemergence, 0 to 100 scale (0 no effect, 100 complete control); for Corn plant response rating (0 to 100 scale): Preemergence, 500 g ai/ha, 0 is no effect, 100 is complete control
Summary of the method: as §1

[13] = tested on: velvetleaf (Abutilon theophrasti); test: Test A preemergence; conditions: for Plant response rating, Velvetleaf: 125 g ai/ha, preemergence, 0 to 100 scale (0 no effect, 100 complete control); for Velvetleaf plant response rating (0 to 100 scale): Preemergence, 500 g ai/ha, 0 is no effect, 100 is complete control
Summary of the method: as §1

[14] = tested on: morningglory (Ipomoea spp.); test: Test A preemergence
Summary of the method: as §1

[15] = tested on: pigweed (Amaranthus retroflexus); test: Test A preemergence; conditions: for Plant response rating, Pigweed: 125 g ai/ha, preemergence, 0 to 100 scale (0 no effect, 100 complete control); for Pigweed plant response rating (0 to 100 scale): Preemergence, 500 g ai/ha, 0 is no effect, 100 is complete control
[16] = tested on: crabgrass, large (Digitaria sanguinalis); test: Test A preemergence; conditions: for Plant response rating, Crabgrass, Large: 125 g ai/ha, preemergence, 0 to 100 scale (0 no effect, 100 complete control); for Crabgrass, Large plant response rating (0 to 100 scale): Preemergence, 500 g ai/ha, 0 is no effect, 100 is complete control
Summary of the method: as §1

[17] = tested on: barnyardgrass (Echinochloa crus-galli); test: Test B flooded paddy test; conditions: Flood, 250 g ai/ha; 0 to 100 scale where 0 is no effect and 100 is complete control; 13 to 15 d
Summary of the method: (§2)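 Plants at 2-leaf stage flooded to 3 cm above soil, with compounds applied directly to paddy water and that depth maintained. Plants kept in greenhouse 13–15 d. Visual rating versus controls on a 0 (no effect) to 100 (complete control) scale.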

[18] = tested on: ducksalad (Heteranthera limosa); test: Test B flooded paddy test; conditions: Flood, 250 g ai/ha; 0 to 100 scale where 0 is no effect and 100 is complete control; 13 to 15 d
Summary of the method: as §2

rice (Oryra sativa) = test: Test B flooded paddy test; conditions: Flood, 250 g ai/ha; 0 to 100 scale where 0 is no effect and 100 is complete control; 13 to 15 d
Summary of the method: as §2

[19] = tested on: sedge, umbrella (small-flower umbrella sedge, Cyperus difformis); test: Test B flooded paddy test; conditions: Flood, 250 g ai/ha; 0 to 100 scale where 0 is no effect and 100 is complete control; 13 to 15 d
Summary of the method: as §2

[20] = tested on: barnyardgrass (Echinochloa crus-galli); test: Test C flooded paddy test; conditions: Flood, 0 is no effect, 100 is complete control
Summary of the method: (§3)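 Plants grown to the 2-leaf stage in pots flooded to 3 cm above soil; compounds applied directly into the paddy water, depth held throughout. After 13 to 15 d in greenhouse, injury visually rated against untreated controls on a 0–100 scale (0 no effect, 100 complete control).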

[21] = tested on: ducksalad (Heteranthera limosa); test: Test C flooded paddy test; conditions: Flood, 0 is no effect, 100 is complete control
Summary of the method: as §3

rice (Oryza sativa) = test: Test C flooded paddy test; conditions: Flood, 0 is no effect, 100 is complete control
Summary of the method: as §3

[22] = tested on: sedge, umbrella (small-flower umbrella sedge, Cyperus difformis); test: Test C flooded paddy test; conditions: Flood, 0 is no effect, 100 is complete control
Summary of the method: as §3

[23] = 500 g ai/ha, postemergence, 0 to 100 scale, 0 no effect, 100 complete control
[24] = Postemergence, 125 g ai/ha, visual injury, 0 to 100 scale (0 no effect, 100 complete control), approx. 10 d

Structure (SMILES): O=C1NCC(c2cccnc2)C1C(=O)Nc1ccccc1C(F)(F)F (racemic) [Compound 352]
- Plant response rating, Wheat [1, 23]: 0
- Plant response rating, Wheat [1, 24]: 0
- Plant response rating, Foxtail, Giant [2, 23]: 0
- Plant response rating, Foxtail, Giant [2, 24]: 0
- Plant response rating, Barnyardgrass [3, 23]: 0
- Plant response rating, Barnyardgrass [3, 24]: 0
- Plant response rating, Corn (corn (Zea mays) [4]; [23]): 0
- Plant response rating, Corn (corn (Zea mays) [4]; [24]): 0
- Plant response rating, Velvetleaf [5, 23]: 0
- Plant response rating, Velvetleaf [5, 24]: 0
- Plant response rating, Morningglory [6, 23]: 0
- Plant response rating, Morningglory [6, 24]: 0
- Plant response rating, Pigweed [7, 23]: 0
- Plant response rating, Pigweed [7, 24]: 0
- Plant response rating, Crabgrass, Large [8, 23]: 0
- Plant response rating, Crabgrass, Large [8, 24]: 0
- Plant response rating, Wheat [9]: 0
- Wheat plant response rating (0 to 100 scale) [9]: 0
- Plant response rating, Foxtail, Giant [10]: 0
- Foxtail, Giant plant response rating (0 to 100 scale) [10]: 0
- Plant response rating, Barnyardgrass [11]: 0
- Barnyardgrass plant response rating (0 to 100 scale) [11]: 0
- Plant response rating, Corn (corn (Zea mays) [12]): 0
- Corn plant response rating (0 to 100 scale) (corn (Zea mays) [12]): 0
- Plant response rating, Velvetleaf [13]: 0
- Velvetleaf plant response rating (0 to 100 scale) [13]: 0
- Plant response rating, Morningglory ([14]; 125 g ai/ha, preemergence, 0 to 100 scale (0 no effect, 100 complete control)): 0
- Morningglory plant response rating (0 to 100 scale) ([14]; Preemergence, 500 g ai/ha, 0 is no effect, 100 is complete control): 0
- Plant response rating, Pigweed [15]: 0
- Pigweed plant response rating (0 to 100 scale) [15]: 0
- Plant response rating, Crabgrass, Large [16]: 0
- Crabgrass, Large plant response rating (0 to 100 scale) [16]: 0
- Plant response rating, Barnyardgrass [17]: 0
- Plant response rating, Ducksalad [18]: 0
- Plant response rating, Rice (rice (Oryra sativa)): 0
- Plant response rating, Sedge, Umbrella [19]: 0

Structure (SMILES): O=C1NCC(c2cccnc2)C1C(=O)Nc1ccccc1F (racemic) [Compound 363]
- Plant response rating, Wheat [1, 23]: 0
- Plant response rating, Wheat [1, 24]: 0
- Plant response rating, Foxtail, Giant [2, 23]: 0
- Plant response rating, Foxtail, Giant [2, 24]: 0
- Plant response rating, Barnyardgrass [3, 23]: 0
- Plant response rating, Barnyardgrass [3, 24]: 0
- Plant response rating, Corn (corn (Zea mays) [4]; [23]): 0
- Plant response rating, Corn (corn (Zea mays) [4]; [24]): 0
- Plant response rating, Velvetleaf [5, 23]: 10
- Plant response rating, Velvetleaf [5, 24]: 0
- Plant response rating, Morningglory [6, 23]: 0
- Plant response rating, Morningglory [6, 24]: 0
- Plant response rating, Pigweed [7, 23]: 0
- Plant response rating, Pigweed [7, 24]: 0
- Plant response rating, Crabgrass, Large [8, 23]: 0
- Plant response rating, Crabgrass, Large [8, 24]: 0
- Plant response rating, Wheat [9]: 0
- Wheat plant response rating (0 to 100 scale) [9]: 0
- Plant response rating, Foxtail, Giant [10]: 0
- Foxtail, Giant plant response rating (0 to 100 scale) [10]: 0
- Plant response rating, Barnyardgrass [11]: 0
- Barnyardgrass plant response rating (0 to 100 scale) [11]: 0
- Plant response rating, Corn (corn (Zea mays) [12]): 0
- Corn plant response rating (0 to 100 scale) (corn (Zea mays) [12]): 0
- Plant response rating, Velvetleaf [13]: 0
- Velvetleaf plant response rating (0 to 100 scale) [13]: 0
- Plant response rating, Pigweed [15]: 0
- Pigweed plant response rating (0 to 100 scale) [15]: 0
- Plant response rating, Crabgrass, Large [16]: 0
- Crabgrass, Large plant response rating (0 to 100 scale) [16]: 0
- Plant response rating (scale of 0 to 100), Barnyardgrass ([20]; 31 g ai/ha): 0
- Plant response rating (scale of 0 to 100), Barnyardgrass ([20]; 62 g ai/ha): 0
- Plant response rating (scale of 0 to 100), Barnyardgrass ([20]; 125 g ai/ha): 0
- Plant response rating (scale of 0 to 100), Barnyardgrass ([20]; 250 g ai/ha): 0
- Plant response rating (scale of 0 to 100), Ducksalad ([21]; 31 g ai/ha): 0
- Plant response rating (scale of 0 to 100), Ducksalad ([21]; 62 g ai/ha): 0
- Plant response rating (scale of 0 to 100), Ducksalad ([21]; 125 g ai/ha): 0
- Plant response rating (scale of 0 to 100), Ducksalad ([21]; 250 g ai/ha): 0
- Plant response rating (scale of 0 to 100), Rice (rice (Oryza sativa); 31 g ai/ha): 0
- Plant response rating (scale of 0 to 100), Rice (rice (Oryza sativa); 62 g ai/ha): 0
- Plant response rating (scale of 0 to 100), Rice (rice (Oryza sativa); 125 g ai/ha): 0
- Plant response rating (scale of 0 to 100), Rice (rice (Oryza sativa); 250 g ai/ha): 0
- Plant response rating (scale of 0 to 100), Sedge, Umbrella ([22]; 31 g ai/ha): 0
- Plant response rating (scale of 0 to 100), Sedge, Umbrella ([22]; 62 g ai/ha): 0
- Plant response rating (scale of 0 to 100), Sedge, Umbrella ([22]; 125 g ai/ha): 0
- Plant response rating (scale of 0 to 100), Sedge, Umbrella ([22]; 250 g ai/ha): 0
